The test concerns the target T1, STK32B (YANK2) (Homo sapiens, UniProt Q9NY57).
T1 construct: purchased Thermo Fisher Scientific (Life Technologies) SelectScreen
Put plainly: SelectScreen LanthaScreen. It counts as binding. To be noted: read-out: % displacement. The method, boiled down: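 SelectScreen broad panel; activity (Z'LYTE, Adapta) plus binding formats. ATP: Km app for CSF1R Z'LYTE; 10 for CAMK1 Adapta. Readout = % per kinase.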
A general note: In TR-FRET formats the signal depends on donor and acceptor labels being close together.

Results on one compound are retold here after PMC6934184, “Selective DNA-PKcs inhibition extends the therapeutic index of localized radiotherapy and chemotherapy” (The Journal of Clinical Investigation, 2019).

T1 sequence (Q9NY57 whole entry): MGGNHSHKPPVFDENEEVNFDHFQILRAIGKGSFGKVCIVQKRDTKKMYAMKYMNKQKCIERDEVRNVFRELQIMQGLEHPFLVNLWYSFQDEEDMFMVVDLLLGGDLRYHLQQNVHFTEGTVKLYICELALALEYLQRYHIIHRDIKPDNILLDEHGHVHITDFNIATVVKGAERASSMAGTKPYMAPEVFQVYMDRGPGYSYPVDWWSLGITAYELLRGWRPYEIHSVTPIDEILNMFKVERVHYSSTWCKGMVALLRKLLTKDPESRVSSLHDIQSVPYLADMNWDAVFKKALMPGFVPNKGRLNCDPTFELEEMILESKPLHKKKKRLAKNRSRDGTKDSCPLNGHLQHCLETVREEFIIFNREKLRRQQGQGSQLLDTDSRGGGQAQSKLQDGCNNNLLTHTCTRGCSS

As to `CN(C(=O)CN1CCOCC1)c1ccc2sc3c(-c4cccc5c(=O)cc(N6CC7CCC(C6)O7)oc45)cccc3c2c1` [NU5455], the inhibition at 1 µM is -1.4%.
